System: Transport facilitation protein genes
Experiment: DNA chip mRNA expression in yeast, transport facilitation protein genes (Table 5)
Assay type: cell-based, Saccharomyces cerevisiae S288C
Method in brief: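 Measured as treated-to-untreated fluorescence ratio on a full-genome yeast DNA chip. Cells (S288C, YPD, 25° C.) were exposed in log phase for two hours to one chemical, dosed to curb growth without killing.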

For `S=C([S-])NCCNC(=S)[S-].[Zn+2]` [(11), zinc N,N′-ethylenebis(dithiocarbamate)], the “The level of expressed mRNA in the presence of chemical substance/The level of expressed mRNA in the absence of chemical substance” value (yeast gene YBL030C) was 1.1, the “The level of expressed mRNA in the presence of chemical substance/The level of expressed mRNA in the absence of chemical substance” value (yeast gene YBL099W) was 2.1 and the “The level of expressed mRNA in the presence of chemical substance/The level of expressed mRNA in the absence of chemical substance” value (yeast gene YBR052C) was 1.7. The “The level of expressed mRNA in the presence of chemical substance/The level of expressed mRNA in the absence of chemical substance” value (yeast gene YBR068C) was 0.8, the “The level of expressed mRNA in the presence of chemical substance/The level of expressed mRNA in the absence of chemical substance” value (yeast gene YBR127C) was 1.1 and the “The level of expressed mRNA in the presence of chemical substance/The level of expressed mRNA in the absence of chemical substance” value (yeast gene YBR132C) was 1.9. For the same compound, the “The level of expressed mRNA in the presence of chemical substance/The level of expressed mRNA in the absence of chemical substance” value (yeast gene YBR207W) was 1.1, the “The level of expressed mRNA in the presence of chemical substance/The level of expressed mRNA in the absence of chemical substance” value (yeast gene YBR293W) was 1.1 and the “The level of expressed mRNA in the presence of chemical substance/The level of expressed mRNA in the absence of chemical substance” value (yeast gene YBR294W) was 1.2. For the same compound, the “The level of expressed mRNA in the presence of chemical substance/The level of expressed mRNA in the absence of chemical substance” value (yeast gene YBR295W) was 1.1, the “The level of expressed mRNA in the presence of chemical substance/The level of expressed mRNA in the absence of chemical substance” value (yeast gene YBR298C) was 1.5 and the “The level of expressed mRNA in the presence of chemical substance/The level of expressed mRNA in the absence of chemical substance” value (yeast gene YCL025C) was 1.0. For the same compound, the “The level of expressed mRNA in the presence of chemical substance/The level of expressed mRNA in the absence of chemical substance” value (yeast gene YCL038C) was 2.0, the “The level of expressed mRNA in the presence of chemical substance/The level of expressed mRNA in the absence of chemical substance” value (yeast gene YCR024C-A) was 1.5 and the “The level of expressed mRNA in the presence of chemical substance/The level of expressed mRNA in the absence of chemical substance” value (yeast gene YCR037C) was 0.8. The “The level of expressed mRNA in the presence of chemical substance/The level of expressed mRNA in the absence of chemical substance” value (yeast gene YCR098C) was 1.3, the “The level of expressed mRNA in the presence of chemical substance/The level of expressed mRNA in the absence of chemical substance” value (yeast gene YDL128W) was 1.2 and the “The level of expressed mRNA in the presence of chemical substance/The level of expressed mRNA in the absence of chemical substance” value (yeast gene YDL198C) was 2.5. For the same compound, the “The level of expressed mRNA in the presence of chemical substance/The level of expressed mRNA in the absence of chemical substance” value (yeast gene YDL210W) was 0.6, the “The level of expressed mRNA in the presence of chemical substance/The level of expressed mRNA in the absence of chemical substance” value (yeast gene YDL245C) was 1.5 and the “The level of expressed mRNA in the presence of chemical substance/The level of expressed mRNA in the absence of chemical substance” value (yeast gene YDR038C) was 0.9. The “The level of expressed mRNA in the presence of chemical substance/The level of expressed mRNA in the absence of chemical substance” value (yeast gene YDR039C) was 0.9, the “The level of expressed mRNA in the presence of chemical substance/The level of expressed mRNA in the absence of chemical substance” value (yeast gene YDR086C) was 1.1 and the “The level of expressed mRNA in the presence of chemical substance/The level of expressed mRNA in the absence of chemical substance” value (yeast gene YDR270W) was 1.0. The “The level of expressed mRNA in the presence of chemical substance/The level of expressed mRNA in the absence of chemical substance” value (yeast gene YDR298C) was 1.2, the “The level of expressed mRNA in the presence of chemical substance/The level of expressed mRNA in the absence of chemical substance” value (yeast gene YDR342C) was 2.9 and the “The level of expressed mRNA in the presence of chemical substance/The level of expressed mRNA in the absence of chemical substance” value (yeast gene YDR343C) was 2.3. The “The level of expressed mRNA in the presence of chemical substance/The level of expressed mRNA in the absence of chemical substance” value (yeast gene YDR345C) was 1.5, the “The level of expressed mRNA in the presence of chemical substance/The level of expressed mRNA in the absence of chemical substance” value (yeast gene YDR387C) was 2.0 and the “The level of expressed mRNA in the presence of chemical substance/The level of expressed mRNA in the absence of chemical substance” value (yeast gene YDR497C) was 0.7. The “The level of expressed mRNA in the presence of chemical substance/The level of expressed mRNA in the absence of chemical substance” value (yeast gene YEL027W) was 0.9, the “The level of expressed mRNA in the presence of chemical substance/The level of expressed mRNA in the absence of chemical substance” value (yeast gene YEL063C) was 0.8 and the “The level of expressed mRNA in the presence of chemical substance/The level of expressed mRNA in the absence of chemical substance” value (yeast gene YEL065W) was 0.6. The “The level of expressed mRNA in the presence of chemical substance/The level of expressed mRNA in the absence of chemical substance” value (yeast gene YER053C) was 2.4, the “The level of expressed mRNA in the presence of chemical substance/The level of expressed mRNA in the absence of chemical substance” value (yeast gene YER119C) was 2.2 and the “The level of expressed mRNA in the presence of chemical substance/The level of expressed mRNA in the absence of chemical substance” value (yeast gene YFL011W) was 2.1. The “The level of expressed mRNA in the presence of chemical substance/The level of expressed mRNA in the absence of chemical substance” value (yeast gene YFL041W) was 0.9, the “The level of expressed mRNA in the presence of chemical substance/The level of expressed mRNA in the absence of chemical substance” value (yeast gene YFL050C) was 1.2 and the “The level of expressed mRNA in the presence of chemical substance/The level of expressed mRNA in the absence of chemical substance” value (yeast gene YFL054C) was 1.7. For the same compound, the “The level of expressed mRNA in the presence of chemical substance/The level of expressed mRNA in the absence of chemical substance” value (yeast gene YFL055W) was 2.7, the “The level of expressed mRNA in the presence of chemical substance/The level of expressed mRNA in the absence of chemical substance” value (yeast gene YGL006W) was 0.8 and the “The level of expressed mRNA in the presence of chemical substance/The level of expressed mRNA in the absence of chemical substance” value (yeast gene YGL008C) was 0.7. The “The level of expressed mRNA in the presence of chemical substance/The level of expressed mRNA in the absence of chemical substance” value (yeast gene YGL104C) was 1.8, the “The level of expressed mRNA in the presence of chemical substance/The level of expressed mRNA in the absence of chemical substance” value (yeast gene YGL167C) was 0.8 and the “The level of expressed mRNA in the presence of chemical substance/The level of expressed mRNA in the absence of chemical substance” value (yeast gene YGL255W) was 0.5. For the same compound, the “The level of expressed mRNA in the presence of chemical substance/The level of expressed mRNA in the absence of chemical substance” value (yeast gene YGR055W) was 1.5, the “The level of expressed mRNA in the presence of chemical substance/The level of expressed mRNA in the absence of chemical substance” value (yeast gene YGR065C) was 1.1 and the “The level of expressed mRNA in the presence of chemical substance/The level of expressed mRNA in the absence of chemical substance” value (yeast gene YGR082W) was 1.3. For the same compound, the “The level of expressed mRNA in the presence of chemical substance/The level of expressed mRNA in the absence of chemical substance” value (yeast gene YGR096W) was 0.8, the “The level of expressed mRNA in the presence of chemical substance/The level of expressed mRNA in the absence of chemical substance” value (yeast gene YGR138C) was 0.7 and the “The level of expressed mRNA in the presence of chemical substance/The level of expressed mRNA in the absence of chemical substance” value (yeast gene YGR191W) was 1.6. The “The level of expressed mRNA in the presence of chemical substance/The level of expressed mRNA in the absence of chemical substance” value (yeast gene YGR197C) was 1.1, the “The level of expressed mRNA in the presence of chemical substance/The level of expressed mRNA in the absence of chemical substance” value (yeast gene YGR224W) was 0.8 and the “The level of expressed mRNA in the presence of chemical substance/The level of expressed mRNA in the absence of chemical substance” value (yeast gene YGR260W) was 1.3. For the same compound, the “The level of expressed mRNA in the presence of chemical substance/The level of expressed mRNA in the absence of chemical substance” value (yeast gene YGR281W) was 0.7.
